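Growth conditions: 96-well plates. Treatment: test compound, 48 hours, 5 concentrations. Analysis: linear interpolation between bracketing concentrations; unreached endpoints set to highest concentration. At the GI50, growth is halved.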 Activity calls are given as the source filed them. Cut-off read from the data, not from the text of the source: active = GI50 up to about 1.1 µM and inactive = higher.
Assays:
Test in all cases: NCI-60 cell line screen, 48 h
OVCAR-8 = test system: OVCAR-8
Malme-3M = test system: Malme-3M
NCI-H522 = test system: NCI-H522
OVCAR-5 = test system: OVCAR-5
HT-29 = test system: HT-29
A549 = test system: A549
RPMI-8226 = test system: RPMI-8226
SNB-19 = test system: SNB-19
786-0 = test system: 786-0
HCT-116 = test system: HCT-116
NCI/ADR-RES = test system: NCI/ADR-RES
MCF7 = test system: MCF7
NCI-H23 = test system: NCI-H23
DU-145 = test system: DU-145
HCT-15 = test system: HCT-15
RXF 393 = test system: RXF 393
CAKI-1 = test system: CAKI-1
HCC 2998 = test system: HCC 2998
SW-620 = test system: SW-620
UO-31 = test system: UO-31
MOLT-4 = test system: MOLT-4
MDA-MB-435 = test system: MDA-MB-435
U-251 = test system: U-251
OVCAR-3 = test system: OVCAR-3
SNB-75 = test system: SNB-75
SK-MEL-5 = test system: SK-MEL-5
MDA-MB-231 = test system: MDA-MB-231
KM12 = test system: KM12
TK-10 = test system: TK-10
LOX IMVI = test system: LOX IMVI
EKVX = test system: EKVX
A498 = test system: A498
SN12C = test system: SN12C
PC-3 = test system: PC-3
SF-295 = test system: SF-295
NCI-H226 = test system: NCI-H226
NCI-H460 = test system: NCI-H460
T47D = test system: T47D
BT-549 = test system: BT-549
SK-MEL-2 = test system: SK-MEL-2
UACC-257 = test system: UACC-257
SF-539 = test system: SF-539
UACC-62 = test system: UACC-62
IGROV-1 = test system: IGROV-1
COLO 205 = test system: COLO 205
M14 = test system: M14
SK-MEL-28 = test system: SK-MEL-28
HOP-62 = test system: HOP-62
SR = test system: SR
OVCAR-4 = test system: OVCAR-4
ACHN = test system: ACHN
HL-60 = test system: HL-60
SF-268 = test system: SF-268
K562 = test system: K562
HOP-92 = test system: HOP-92
Hs-578T = test system: Hs-578T

SMILES: c1ccc2c(c1)ccc1ncccc12
- GI50 (OVCAR-8): > 100 µM (inactive)
- GI50 (Malme-3M): > 100 µM (inactive)
- GI50 (NCI-H522): > 100 µM (inactive)
- GI50 (OVCAR-5): > 100 µM (inactive)
- GI50 (HT-29): > 100 µM (inactive)
- GI50 (A549): > 100 µM (inactive)
- GI50 (RPMI-8226): > 100 µM (inactive)
- GI50 (SNB-19): 85.7 µM (inactive)
- GI50 (786-0): > 100 µM (inactive)
- GI50 (HCT-116): > 100 µM (inactive)
- GI50 (NCI/ADR-RES): > 100 µM (inactive)
- GI50 (MCF7): > 100 µM (inactive)
- GI50 (NCI-H23): > 100 µM (inactive)
- GI50 (DU-145): > 100 µM (inactive)
- GI50 (HCT-15): 58.2 µM
- GI50 (RXF 393): > 100 µM (inactive)
- GI50 (CAKI-1): 85.9 µM (inactive)
- GI50 (HCC 2998): > 100 µM (inactive)
- GI50 (SW-620): > 100 µM (inactive)
- GI50 (UO-31): > 100 µM (inactive)
- GI50 (MOLT-4): > 100 µM (inactive)
- GI50 (MDA-MB-435): > 100 µM (inactive)
- GI50 (U-251): 79.3 µM (inactive)
- GI50 (OVCAR-3): > 100 µM (inactive)
- GI50 (SNB-75): > 100 µM (inactive)
- GI50 (SK-MEL-5): 75.2 µM (inactive)
- GI50 (MDA-MB-231): > 100 µM (inactive)
- GI50 (KM12): > 100 µM (inactive)
- GI50 (TK-10): > 100 µM (inactive)
- GI50 (LOX IMVI): > 100 µM (inactive)
- GI50 (EKVX): > 100 µM (inactive)
- GI50 (A498): 55.8 µM (inactive)
- GI50 (SN12C): > 100 µM (inactive)
- GI50 (PC-3): 98.2 µM (inactive)
- GI50 (SF-295): > 100 µM (inactive)
- GI50 (NCI-H226): > 100 µM (inactive)
- GI50 (NCI-H460): > 100 µM (inactive)
- GI50 (T47D): > 100 µM (inactive)
- GI50 (BT-549): 47.1 µM (inactive)
- GI50 (SK-MEL-2): > 100 µM (inactive)
- GI50 (UACC-257): > 100 µM (inactive)
- GI50 (SF-539): > 100 µM (inactive)
- GI50 (UACC-62): 83.8 µM (inactive)
- GI50 (IGROV-1): > 100 µM (inactive)
- GI50 (COLO 205): > 100 µM (inactive)
- GI50 (M14): > 100 µM (inactive)
- GI50 (SK-MEL-28): > 100 µM (inactive)
- GI50 (HOP-62): > 100 µM (inactive)
- GI50 (SR): 58.2 µM (inactive)
- GI50 (OVCAR-4): > 100 µM (inactive)
- GI50 (ACHN): > 100 µM (inactive)
- GI50 (HL-60): > 100 µM (inactive)
- GI50 (SF-268): > 100 µM (inactive)
- GI50 (K562): > 100 µM (inactive)
- GI50 (HOP-92): 44.6 µM (inactive)
- GI50 (Hs-578T): > 100 µM (inactive)
